# Measurements taken from ChEMBL document CHEMBL6092125, “Synthesis and biological evaluation of novel aminoquinolines with an n-octyl linker: Impact of halogen substituents on C(7) or a terminal amino group on anticholinesterase and BACE1 activity” (Bioorg Med Chem Lett, 2024).
# The source made the active and inactive calls. The calls are words filed in the database; no cut-off is given here.
# Tests used:
# [1] = biological target: T1, Cholinesterase (Homo sapiens, UniProt P06276); test: Inhibition of recombinant human BChE by DTNB reagent based Ellman's method
# T1 sequence (P06276 whole entry): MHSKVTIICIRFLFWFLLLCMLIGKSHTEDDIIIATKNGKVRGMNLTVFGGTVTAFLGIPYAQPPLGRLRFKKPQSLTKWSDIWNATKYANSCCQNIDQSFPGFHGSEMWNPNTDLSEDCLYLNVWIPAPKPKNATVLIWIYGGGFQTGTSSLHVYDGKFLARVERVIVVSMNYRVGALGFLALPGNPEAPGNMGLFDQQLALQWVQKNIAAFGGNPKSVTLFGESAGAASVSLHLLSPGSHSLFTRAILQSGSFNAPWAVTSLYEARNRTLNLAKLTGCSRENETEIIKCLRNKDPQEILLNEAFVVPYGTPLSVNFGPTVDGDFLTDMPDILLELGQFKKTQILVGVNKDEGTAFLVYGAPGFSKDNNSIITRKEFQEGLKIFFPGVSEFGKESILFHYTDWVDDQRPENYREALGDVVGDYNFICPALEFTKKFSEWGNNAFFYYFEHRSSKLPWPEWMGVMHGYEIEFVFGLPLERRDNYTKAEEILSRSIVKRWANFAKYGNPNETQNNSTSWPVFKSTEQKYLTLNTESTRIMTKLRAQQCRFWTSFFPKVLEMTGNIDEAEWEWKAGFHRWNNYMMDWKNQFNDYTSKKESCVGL
# [2] = biological target: T2, Acetylcholinesterase (Homo sapiens, UniProt P22303); test: Inhibition of recombinant human AChE by DTNB reagent based Ellman's method
# T2 sequence (P22303 whole entry): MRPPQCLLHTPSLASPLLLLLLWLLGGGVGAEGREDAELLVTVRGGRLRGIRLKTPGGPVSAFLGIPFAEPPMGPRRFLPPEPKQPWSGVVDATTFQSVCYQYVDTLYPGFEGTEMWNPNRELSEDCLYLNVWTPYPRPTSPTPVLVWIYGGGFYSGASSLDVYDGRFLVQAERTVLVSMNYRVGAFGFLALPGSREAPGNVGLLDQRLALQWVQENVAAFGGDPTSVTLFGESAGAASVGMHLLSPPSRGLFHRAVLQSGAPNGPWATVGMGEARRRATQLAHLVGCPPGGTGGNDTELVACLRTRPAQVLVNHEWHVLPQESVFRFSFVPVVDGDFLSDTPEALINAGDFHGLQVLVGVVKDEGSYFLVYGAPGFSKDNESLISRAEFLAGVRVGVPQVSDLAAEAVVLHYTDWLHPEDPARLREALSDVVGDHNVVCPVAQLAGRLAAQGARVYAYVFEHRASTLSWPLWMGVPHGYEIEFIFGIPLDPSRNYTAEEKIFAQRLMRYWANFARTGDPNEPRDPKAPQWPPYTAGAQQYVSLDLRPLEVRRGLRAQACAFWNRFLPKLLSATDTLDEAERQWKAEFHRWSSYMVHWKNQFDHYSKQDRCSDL
# [3] = biological target: T2, Acetylcholinesterase; test: Non-competitive inhibition of recombinant human AChE by DTNB reagent based Ellman's method
# [4] = biological target: T1, Cholinesterase; test: Competitive inhibition of recombinant human BChE by DTNB reagent based Ellman's method
# [5] = tested on: SH-SY5Y; test: Cytotoxicity against human SH-SY5Y cells incubated for 24 hrs by MTS assay; assay type: functional, cell-based
# [6] = tested on: HEK293; test: Cytotoxicity against HEK293 cells incubated for 24 hrs by MTS assay; assay type: functional, cell-based; details: Homo sapiens
# [7] = biological target: T1, Cholinesterase; test: Mixed type inhibition of recombinant human BChE by DTNB reagent based Ellman's method
# [8] = biological target: T2, Acetylcholinesterase; test: Mixed type inhibition of recombinant human AChE by DTNB reagent based Ellman's method
# [9] = biological target: Beta-secretase 1 (Homo sapiens) (UniProt P56817); test: Inhibition of BACE1 (unknown origin) at 1 uM relative to control
# Chain of Beta-secretase 1 (Homo sapiens) (P56817 whole entry): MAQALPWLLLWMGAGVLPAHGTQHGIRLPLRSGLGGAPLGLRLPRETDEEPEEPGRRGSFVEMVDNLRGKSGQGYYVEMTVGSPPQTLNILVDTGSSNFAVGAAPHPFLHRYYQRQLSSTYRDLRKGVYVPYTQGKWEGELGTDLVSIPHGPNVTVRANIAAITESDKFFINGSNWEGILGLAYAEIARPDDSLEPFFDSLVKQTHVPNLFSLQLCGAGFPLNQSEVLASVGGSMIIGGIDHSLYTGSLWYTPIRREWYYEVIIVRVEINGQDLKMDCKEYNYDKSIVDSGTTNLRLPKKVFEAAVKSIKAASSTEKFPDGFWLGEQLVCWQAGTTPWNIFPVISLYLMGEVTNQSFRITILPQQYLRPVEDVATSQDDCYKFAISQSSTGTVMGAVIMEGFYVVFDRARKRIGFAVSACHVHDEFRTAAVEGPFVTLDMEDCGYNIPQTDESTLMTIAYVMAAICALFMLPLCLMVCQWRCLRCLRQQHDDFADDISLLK
# [10] = biological target: T2, Acetylcholinesterase; test: Competitive inhibition of recombinant human AChE by DTNB reagent based Ellman's method
# [11] = tested on: HepG2; test: Cytotoxicity against human HepG2 cells incubated for 24 hrs by MTS assay; assay type: functional, cell-based
SMILES,Ki [1] [µM],Ki [2] [µM],Ki [4] [µM],Activity [5],Activity [6],inhibition [9] [%],other results
Fc1ccc(Br)c(CNCCCCCCCCNc2ccnc3cc(Cl)ccc23)c1,0.28,0.016,–,–,–,–,–
CC(C)(C)c1ccc(NCCCCCCCCNc2ccnc3cc(C(F)(F)F)ccc23)cc1,–,–,0.071,–,–,–,Ki [3]: 0.16 µM
Fc1ccc(Br)cc1CNCCCCCCCCNc1ccnc2cc(Cl)ccc12,0.22,0.024,–,–,–,–,–
Clc1ccc(CNCCCCCCCCNc2ccnc3cc(Cl)ccc23)c(Cl)c1,0.18,0.036,–,Active; Increase In Toxicity Compared To Parent Compound 1,–,–,–
Fc1cc(Br)ccc1CNCCCCCCCCNc1ccnc2cc(Cl)ccc12,0.23,0.11,–,Active; Increase In Toxicity Compared To Parent Compound 1,–,–,–
Cc1cc(F)c(CNCCCCCCCCNc2ccnc3cc(Cl)ccc23)cc1F,0.62,0.12,–,–,Active,–,–
FC(F)(F)c1ccc2c(NCCCCCCCCNC3NCCN3)ccnc2c1,–,–,–,–,–,–,Ki [3]: 0.2 µM; Ki [7]: 0.19 µM
FC(F)(F)c1ccc2c(NCCCCCCCCNc3ccccc3Cl)ccnc2c1,–,–,0.019,Active,Active,–,Ki [8]: 0.013 µM
FC(F)(F)c1ccc2c(NCCCCCCCCNc3cc4ccccc4s3)ccnc2c1,–,–,0.0044,Active,Active,> 5.6,Ki [8]: 0.07 µM
FC(F)(F)c1ccc2c(NCCCCCCCCNc3cc4ccccc4o3)ccnc2c1,–,–,0.049,–,–,–,Ki [10]: 0.54 µM
Fc1cccc(NCCCCCCCCNc2ccnc3cc(C(F)(F)F)ccc23)c1,–,–,–,inactive,inactive,> 5.6,Ki [8]: 0.0071 µM; Ki [7]: 0.0067 µM; Activity [11]: inactive
FC(F)(F)c1ccc2c(NCCCCCCCCNc3cccc(Cl)c3)ccnc2c1,–,–,–,Active,Active,> 5.6,Ki [8]: 0.011 µM; Ki [7]: 0.0059 µM
Fc1ccc(F)c(CNCCCCCCCCNc2ccnc3cc(Cl)ccc23)c1,0.041,0.0082,–,–,–,> 5.6,–
FC(F)(F)c1ccc2c(NCCCCCCCCNc3ccccc3)ccnc2c1,–,–,–,–,–,> 5.6,Ki [3]: 0.008 µM; Ki [7]: 0.021 µM
FC(F)(F)c1ccc2c(NCCCCCCCCNc3ccncc3)ccnc2c1,–,–,1.3,–,–,> 5.6,–
O=[N+]([O-])c1ccc(NCCCCCCCCNc2ccnc3cc(C(F)(F)F)ccc23)cc1,–,–,–,–,–,> 5.6,Ki [3]: 0.14 µM; Ki [7]: 0.036 µM
Fc1cc(C(F)(F)F)ccc1CNCCCCCCCCNc1ccnc2cc(Cl)ccc12,1.1,0.15,–,Active; Increase In Toxicity Compared To Parent Compound 1,Active,–,–
Fc1ccc(F)c(CN(CCCCCCCCNc2ccnc3cc(Cl)ccc23)c2cc(F)ccc2F)c1,1.3,0.26,–,–,–,–,–
Fc1cccc(CNCCCCCCCCNc2ccnc3cc(Cl)ccc23)c1,0.0084,0.0032,–,–,–,–,–
Fc1cc(C(F)(F)F)ccc1CN(CCCCCCCCNc1ccnc2cc(Cl)ccc12)c1ccc(C(F)(F)F)cc1F,1.5,0.7,–,–,–,–,–
Fc1ccc(NCCCCCCCCNc2ccnc3cc(C(F)(F)F)ccc23)cc1,–,–,0.0061,–,–,–,Ki [3]: 0.012 µM
Fc1ccc(CNCCCCCCCCNc2ccnc3cc(Cl)ccc23)c(F)c1,0.27,0.021,–,Active,–,–,–
FC(F)(F)c1ccc2c(NCCCCCCCCNc3ccc(Cl)cc3)ccnc2c1,–,–,0.021,Active,Active,–,Ki [10]: 0.07 µM
